In patent US8507490B2, “Tetrasubstituted pyridazine hedgehog pathway antagonists” (Eli Lilly and Company, priority 2008, dated 2013):
Where a name gives a salt, the structure may show the parent alone.

System: Gli1 transcript in Daoy cells (Shh signaling)
Test: Functional assay for measuring the inhibition of Gli1 in Daoy cells (bDNA assay of Gli1 transcript after Shh-conditioned media stimulation)
Format: cell-based
Settings: Homo sapiens; Daoy cells stimulated with Shh-CM, 24 hours incubation with compound, Gli1 bDNA luminescence
Procedure: Biological activity is determined using a functional assay in Daoy neuronal cancer cells and measures levels of Gli1 ribonucleic acid via a bDNA (branched deoxyribonucleic acid) assay system (Panomics, Inc., Fremont, Calif.). Gli was originally discovered in a Glioblastoma cell line and encodes a zinc finger protein that is activated by Shh signaling. The maximum response is obtained by inducing Gli1 transcription in the Daoy cells with conditioned medium (human embryonic kidney, HEK-293 cells stably expressing recombinant Shh) for 24 hours and then measuring the amount of stimulated Gli1 transcript. […]
The bDNA assay system utilizes the technology of branched-chain DNA to allow amplification of a target ribonucleic acid (transcript). […] The addition of a chemilumigenic substrate during the amplification step allows for detection using luminescence. […]
Daoy cells are grown to confluency in tissue culture T225-flasks in Daoy growth media containing Minimum Essential Medium (MEM) plus 10% Fetal Bovine Serum (FBS) with […] non-essential amino acids and 1 mM sodium pyruvate. The cells are removed from the T225-flasks using trypsin ethylenediaminetetraacetic acid (EDTA), centrifuged, resuspended in media, and then counted. […]

With `Cc1c(-c2ccc(F)cc2)nnc(N2CCC(N(C)C(=O)[C@@H]3CCCCN3)CC2)c1C` [Example 34, (S)-N-(1-(6-(4-Fluorophenyl)-4,5-dimethylpyridazin-3-yl)piperidin-4-yl)-N-methylpiperidine-2-carboxamide dihydrochloride] the IC50 was roughly 1.22 nM.

In the case of `Cc1c(-c2ccc(C#N)cc2)nnc(N2CCC(N(C)C(=O)c3cccnc3C(F)(F)F)CC2)c1C` [Example 14, N-(1-(6-(4-Cyanophenyl)-4,5-dimethylpyridazin-3-yl)piperidin-4-yl)-N-methyl-2-(trifluoromethyl)nicotinamide dihydrochloride], the IC50 is reported as roughly 1.27 nM.
